Consider eight compounds from ChEMBL document CHEMBL1201862, “PubChem BioAssay data set” (2004).

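Results reflect a 48-hour exposure of cells in 96-well plates to compound at five concentrations. At the GI50, growth is halved.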 Active and inactive are the calls of the source. Cut-off read from the data, not from the text of the source: active = GI50 up to about 1.1 µM and inactive = higher.

Experiment in all cases: DTP human tumour cell line panel, 48 h
Assay [1] deals with NCI-H460.
The subject of assay [2] is HOP-62.
For assay [3], the system named is UACC-62.
Assay [4] concerns K562.
In assay [5] the test system is MDA-MB-231.
The test system of assay [6] is COLO 205.
In assay [7] the test system is U-251.
The subject of assay [8] is PC-3.
Assay [9] has as its system Malme-3M.
Assay [10] concerns SF-539.
The subject of assay [11] is HCC 2998.
The test system of assay [12] is DLD-1.
The test system of assay [13] is MDA-MB-435.
Assay [14] concerns ACHN.
Assay [15] has as its system IGROV-1.
For assay [16], the system named is OVCAR-5.
Assay [17] relates to CAKI-1.
The subject of assay [18] is RXF 393.
Assay [19] deals with M14.
The subject of assay [20] is Hs-578T.

The GI50 is the concentration that inhibits growth by half. In the case of `CNCCCNc1c2ccccc2nc2cccc([N+](=O)[O-])c12`, the GI50 in [1] was 0.00047 µM (active); in assay [2] it was 0.00373 µM (active); in assay [3], 0.00468 µM (active); in assay [4], 0.00407 µM (active); in [5] it was 0.00158 µM (active); in assay [6], 0.0015 µM (active). The GI50 in assay [7] is 0.00344 µM (active); in assay [8], 0.00182 µM (active); in [9] it was 0.0043 µM (active); in assay [10] it was 0.00634 µM (active); in assay [11], 0.00445 µM (active); in [12] it was 0.00303 µM (active). Also, the GI50 in [13] was 0.00166 µM (active); in [14], 0.00251 µM (active); in assay [15], 0.00726 µM (active); in [16] it was 0.00459 µM (active); in [17], 0.00753 µM (active); in assay [18], 0.000346 µM (active). Further, the figures for the GI50 in [19] and in assay [20] were 0.00433 µM (active) and 0.00299 µM (active), respectively.
Turning to `CCC12C=CCN3CC[C@]4(C(=C(C(=O)OC)[C@@H]1Nc1ccn(C5OC(COC(C)=O)C(OC(C)=O)C5OC(C)=O)c(=O)n1)Nc1ccccc14)C32` (some centres not stated), the GI50 was 4.45 µM (inactive) in assay [1]; 4.93 µM (inactive) in assay [2]; 3.47 µM (inactive) in assay [3]; 5.08 µM (inactive) in [4]; 4.59 µM (inactive) in assay [6]; 4.27 µM (inactive) in assay [7]. Also, the GI50 is 4.78 µM (inactive) in assay [9]; 5 µM (inactive) in assay [10]; 4.3 µM (inactive) in assay [11]; 4.53 µM (inactive) in assay [12]; 4.43 µM (inactive) in assay [14]; 5.25 µM (inactive) in assay [15]. Besides, the GI50 was 1.82 µM (inactive) in assay [16], 5.37 µM (inactive) in assay [17], 3.12 µM (inactive) in assay [18] and 4.18 µM (inactive) in assay [19].
On to `CC(=O)NC(CCCN(Cc1ccccc1)C(=O)NCCCl)C(=O)NCc1ccccc1` (configuration not stated), for which the GI50 in assay [1], in assay [2], in assay [3], in assay [4], in [6] and in assay [7] was > 100 µM (inactive) in each case. For the same compound, the GI50 in assay [9], in [10], in [11], in assay [12], in assay [14] and in assay [15] was > 100 µM (inactive) each time. Besides, the GI50 in [16], in [17], in assay [18] and in assay [19] was > 100 µM (inactive) throughout.
On to `Oc1cc2cc(-c3ccccc3)[nH]c2c2ccccc12`, for which the GI50 is 24 µM (inactive) in assay [1]; > 85.9 µM (inactive) in [2]; 15.2 µM (inactive) in assay [3]; 26.7 µM (inactive) in assay [4]; 10.4 µM (inactive) in assay [6]; 32.1 µM (inactive) in assay [7]. For the same compound, the GI50 in assay [9] was 19.9 µM (inactive); in assay [10] it was 28.6 µM (inactive); in assay [11], 49.5 µM (inactive); in assay [12] it was 32 µM (inactive); in [14] it was 25 µM (inactive); in assay [15], 35.6 µM (inactive). Besides, the GI50 in [16] is > 100 µM (inactive); in [17], 18.5 µM (inactive); in assay [18], 27.8 µM (inactive); in [19] it was 20.3 µM (inactive).
For the compound `Clc1ccc(C2=Nc3ccccc3SC(c3cccs3)C2)cc1` (configuration not stated), the GI50 was 15 µM (inactive) in assay [1]; 18.2 µM (inactive) in [2]; 15.3 µM (inactive) in assay [3]; 5.16 µM (inactive) in assay [4]; 17.4 µM (inactive) in assay [6]; 11.8 µM (inactive) in assay [7]. Besides, the GI50 in [9] was > 10 µM (inactive); in [10], 16.8 µM (inactive); in assay [11] it was 17 µM (inactive); in assay [12], 10.1 µM (inactive); in assay [14], 15.3 µM (inactive); in assay [15], 14 µM (inactive). Moreover, the GI50 in assay [16] was 14.5 µM (inactive); in [17], 15.5 µM (inactive); in assay [18], 10.7 µM (inactive); in assay [19], 16.4 µM (inactive).
With `CO[C@H](C(=O)O[C@H]1C(=O)N2CC[C@@H]3CCC[C@H]1C32C)c1ccccc1` (some centres not stated), the GI50 in assay [1], in assay [2], in assay [3], in assay [4], in [6] and in [7] was > 100 µM (inactive) each time. In addition, the GI50 is > 100 µM (inactive) in assay [9]; > 100 µM (inactive) in assay [10]; 60.8 µM (inactive) in assay [11]; > 100 µM (inactive) in [12]; > 100 µM (inactive) in [14]; > 100 µM (inactive) in assay [15]. Further, the GI50 in assay [16], in [17], in [18] and in assay [19] was > 100 µM (inactive) throughout.
Consider `CN(C)c1ccc(C(C=C2c3ccccc3Sc3ccccc32)=C(C#N)C#N)cc1`, for which the GI50 in assay [1] is 68.9 µM (inactive); in assay [2] it was 93.8 µM (inactive); in assay [3] it was 57.4 µM (inactive); in assay [4], 5.65 µM (inactive); in [6] it was > 100 µM (inactive); in [7], 37.6 µM (inactive). Also, the GI50 in [9] was > 100 µM (inactive); in assay [10] it was 77.3 µM (inactive); in assay [11], > 100 µM (inactive); in [12], > 100 µM (inactive); in assay [14], 37.5 µM (inactive); in assay [15], > 100 µM (inactive). For the same compound, the GI50 in assay [16] was > 100 µM (inactive); in [17] it was 65.9 µM (inactive); in [18], 29 µM (inactive); in assay [19] it was 58.6 µM (inactive).
As to `Cc1ccc(S(=O)(=O)N/N=C(\c2nc3ccc(Cl)cc3nc2O)C(O)c2cccc([N+](=O)[O-])c2)cc1` (configuration not stated), the GI50 in assay [1], in [2], in assay [3], in [4], in assay [6] and in assay [7] was > 100 µM (inactive) each time. The GI50 in assay [9], in assay [10], in assay [11], in assay [12], in assay [14] and in assay [15] was > 100 µM (inactive) throughout. The GI50 in [16], in assay [17], in assay [18] and in assay [19] was > 100 µM (inactive) in each case.
